Reference: US11213527B2, “Inhibitory effect of low molecular weight compound on cancer and fibrosis” (NATIONAL UNIVERSITY CORPORATION TOTTORI UNIVERSITY, priority 2014, dated 2022)

Assays:
unsorted HuH7 cells = experiment: Mice transplanted with unsorted HuH7 cells; assay type: in vivo; conditions: unsorted HuH7 cells instead of CD44-positive HuH7 cells
Source text: The effect of treating malignant tumors may be evaluated by imaging, endoscopic examination, biopsy, or detection of a malignant tumor marker. In addition, the effect of treating cancer stem cells may be evaluated by imaging, endoscopic examination, biopsy, or detection of a cancer stem cell marker. In addition, the effect of treating fibrosis may be evaluated by imaging, endoscopic examination, biopsy, or detection of a fibrosis marker. […] At this time, the level of a marker after administration of a therapeutic drug may be 0.7, 0.5, 0.3, or 0.1 times the level before the administration (or of a control). […] At this time, the number of marker-positive cells after administration of the therapeutic drug may be 0.7, 0.5, 0.3, or 0.1 times the number before the administration (or of a control). Note that in Example 2 below, the therapeutic effect was evaluated by using mice in which CD44-positive HuH7 cells had been subcutaneously transplanted. The present inventors also replaced the above CD44-positive HuH7 cells by unsorted HuH7 cells.

[1] = test system: liver cancer cell line HepG2 (CD133); experiment: FACS analysis of CD133-expressing cells; assay type: cell-based, human; conditions: 0.5 μM 5-FU, 50 μM IC-2, two days, DMSO 57.1%
Protocol: (§1) A liver cancer cell line HepG2 was seeded at 1.5×10^6 cells/dish on 10-cm dishes. Next, the cells were cultured at 37° C. and 5% CO2. After 24 hours, 1% DSMO, 0.5 μM 5-FU, or 50 μM IC-2 was added thereto and the cells were further incubated. Then, the cells were harvested at two days after the chemical treatment. Meanwhile, the cells were blocked in 0.5% BSA/0.5% FBS/2 mM EDTA/PBS. Subsequently, 50 μL of an anti-human CD133 monoclonal antibody (Miltenyi Biotec) was added to 500 μL of a cell suspension and the resulting mixture was resuspended and incubated at 4° C. for 10 min to carry out a primary antibody reaction. After the primary antibody reaction, the cells were washed 3 times with 1 mL of PBS. After 1.0 μg of an Alexa 488-labeled goat anti-mouse IgG antibody (Life Technologies Corp., Carlsbad, Calif., USA) was added, the mixture was resuspended and a secondary antibody reaction was performed in a dark room for 10 min at 4° C. Thereafter, the cells were washed twice with 5% FBS/2 mM EDTA/PBS and once with 5% FBS/2 mM EDTA/DEME. Next, the cells were resuspended in 500 μL of 5% FBS/2 mM EDTA/PBS. Then, 1 μg/mL of propidium iodide was added thereto. After that, the mixture was made to pass through a tube with a 40-μm mesh filter. Finally, a Beckman Coulter-MoFlo XDP was used to analyze CD133-expressing cells.

[2] = test system: liver cancer cell line HepG2 (EpCAM); experiment: FACS analysis of EpCAM-expressing cells; assay type: cell-based, human; conditions: 0.5 μM 5-FU, 50 μM IC-2, two days, DMSO 76.2%
Protocol: as §1, with “Subsequently, 0.3” for “Subsequently, 50”, “anti-human EpCAM” for “anti-human CD133”, “antibody (Cell Signaling Technology Inc., Danvers, Mass., USA)” for “antibody (Miltenyi Biotec)”, “analyze EpCAM-expressing” for “analyze CD133-expressing”

Wnt/β-catenin signal = experiment: Luciferase assay in HuH7 cells stably expressing pTCF4-CMVpro-Luc; assay type: cell-based; conditions: HuH7 reporter cells; two days after treatment
Protocol: First, 30 μg of a pTCF4-CMVpro-Luc was added to 5×10^6 HuH7 cells and the plasmid was introduced using a Cellject Pro (Thermo, Massachusetts, USA) (at 250 V, 1500 μF). Twenty-four hours after the gene introduction, 2 μg/mL of puromycin was added. Then, the cells were selected while a medium was changed every 3 to 5 days. It was observed that colonies of the pTCF4-CMVpro-Luc-containing HuH7 cells were formed at 20 days after initiation of the selection. A cloning ring, which was manufactured such that an end portion of a blue tip was cut, (the bottom edge of the cloning ring was provided with vaseline), was then used to surround one of the colonies formed. Subsequently, 30 μL of a 0.25% Trypsin/1 mM EDTA solution, which was prepared by diluting a stock solution 5-fold with PBS, was added to detach and collect the cells. […]
Next, a luciferase assay was conducted. […] Subsequently, 10 μL of the cell lysate prepared by using PLB in the 24-well plate was added to the tube, and the luciferase activity was measured by using a MiniLumat LB 9506 (Berthold Technologies, Bad Wildbad, German).
First, the HuH7 cells that were at 70 to 90% confluency and stably expressed the pTCF4-CMVpro-Luc were collected, and the 1×10^4 cells were seeded in each well of a 96-well plate (FALCON). […] Then, a fluorescence plate reader Infinite F500 (TECAN, Zurich, Switzerland) was used to measure luciferase activity.

Row | SMILES | effect of treating a malignant tumor (unsorted HuH7 cells) | proportion of the CD133-expressing cells [1] | proportion of the EpCAM-expressing cells [2] | inhibitory effect on a Wnt/β-catenin signal (luciferase activity) (Wnt/β-catenin signal)
1 | O=C1[C@H](Cc2ccccc2)N2C(=O)CCN(C(=O)NCc3ccccc3)[C@H]2CN1Cc1cccc2ccccc12 [IC-2] | exhibits an effect of treating a malignant tumor | 1.45% | 51.1% | exerted an inhibitory effect
2 | O=c1[nH]cc(F)c(=O)[nH]1 [5-FU, reference compound] | – | 33.3% | 81.4% | exerted no inhibitory effect
